Laboratory results as given in the supplement of paper PMC4862054.
“And” between values parts separate entries of the source, which are not always exact repeats. Equal entries are not always repeated.

Legend:
Settings in all cases: incubation time: 72 h
CAL-148 = assay: drug sensitivity score (DSS), CellTox Green (DSS (AUC-based score)); higher = stronger drug effect (viability inhibition or cytotoxicity); extreme values may be limits of the assay
In short: (§1)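 After 72 h of incubation in 384-well plates with compound at 5 concentrations (10-fold steps, 10,000-fold range set per compound), breast cancer cell lines seeded in 20 µl suspension were read first for CellTox Green fluorescence at 485/520 nm. CellTiter-Glo luminescence was measured next, after 10 min at room temperature. Normalisation on each plate used 0.1 % DMSO and a positive kill control, and the drug sensitivity score was computed from the area under the fitted dose-response curve.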

MDA-MB-453 = assay: as above
In short: as §1

HDQ-P1 = assay: as above
In short: as §1

BT-474 [1] = assay: as above
In short: as §1

HCC1143 [2] = assay: as above
In short: as §1

MCF-10A = assay: as above
In short: as §1

HCC1937 [3] = assay: as above
In short: as §1

MFM-223 [4] = assay: as above
In short: as §1

CAL-51 [5] = assay: as above
In short: as §1

Hs578T [6] = assay: as above
In short: as §1

MDA-MB-231 = assay: as above
In short: as §1

CAL-85-1 = assay: as above
In short: as §1

BT-549 [7] = assay: as above
In short: as §1

DU-4475 = assay: as above
In short: as §1

HCC1599 [8] = assay: as above
In short: as §1

CAL-120 = assay: as above
In short: as §1

BT-474 [9] = assay: normalised viability (% of control), CellTiter-Blue; higher = more viable cells (about 100 = DMSO control)
In short: (§2)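 Normalised viability is given for a single listed concentration of the series. In 384-well plates, breast cancer cell lines were incubated 72 h with compound, then read with CellTiter-Blue (2 h, 37 °C) at 560/590 nm. Per-plate scaling set vehicle to 100 and a positive kill control to 0, with Z'-factor quality control.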

MDA-MB-436 = assay: as above
In short: as §2

HCC1143 [10] = assay: as above
In short: as §2

HCC1937 [11] = assay: as above
In short: as §2

MFM-223 [12] = assay: as above
In short: as §2

CAL-51 [13] = assay: as above
In short: as §2

Hs578T [14] = assay: as above
In short: as §2

BT-549 [15] = assay: as above
In short: as §2

HCC1599 [16] = assay: as above
In short: as §2

CS(=O)(=O)CCNCc1ccc(-c2ccc3ncnc(Nc4ccc(OCc5cccc(F)c5)c(Cl)c4)c3c2)o1 [Lapatinib]
drug sensitivity score (CAL-148): 2.94 | drug sensitivity score (MDA-MB-453): 1.15 | drug sensitivity score (HDQ-P1): 0 | drug sensitivity score (BT-474 [1]): 0 | drug sensitivity score (HCC1143 [2]): 0 | drug sensitivity score (MCF-10A): 2.1 | drug sensitivity score (HCC1937 [3]): 2.25 | drug sensitivity score (MFM-223 [4]): 0 | drug sensitivity score (CAL-51 [5]): 0 | drug sensitivity score (Hs578T [6]): 0 | drug sensitivity score (MDA-MB-231): 1.62 | drug sensitivity score (CAL-85-1): 0 | drug sensitivity score (BT-549 [7]): 0 | drug sensitivity score (DU-4475): 0 | drug sensitivity score (HCC1599 [8]): 0 | drug sensitivity score (CAL-120): 0 | normalised viability (BT-474 [9]; 10 nM): 97.6% and 106% | normalised viability (BT-474 [9]; 1000 nM): 37.3% and 43.9% | normalised viability (BT-474 [9]; 10000 nM): 8.89% and 18.7% | normalised viability (MDA-MB-436; 10 nM): 92.8% and 106% | normalised viability (MDA-MB-436; 1000 nM): 91.3% and 112% | normalised viability (MDA-MB-436; 10000 nM): 22.6% and 43.3% | normalised viability (HCC1143 [10]; 10 nM): 70.7% and 83.8% | normalised viability (HCC1143 [10]; 1000 nM): 76.2% and 89% | normalised viability (HCC1143 [10]; 10000 nM): 71% and 82.7% | normalised viability (HCC1937 [11]; 1000 nM): 91.3% and 113% | normalised viability (HCC1937 [11]; 10000 nM): 35.8% and 53.3% | normalised viability (MFM-223 [12]; 10 nM): 92.8% and 95.8% | normalised viability (MFM-223 [12]; 1000 nM): 95.8% and 96.9% | normalised viability (MFM-223 [12]; 10000 nM): 49.5% and 66% | normalised viability (CAL-51 [13]; 3 nM): 122% and 101% | normalised viability (CAL-51 [13]; 30 nM): 117% and 97.8% | normalised viability (CAL-51 [13]; 100 nM): 112% and 102% | normalised viability (Hs578T [14]; 1000 nM): 93.5% and 95.4% | normalised viability (Hs578T [14]; 10000 nM): 24.9% and 33.1% | normalised viability (BT-549 [15]; 10 nM): 74.6% and 99.6% | normalised viability (BT-549 [15]; 1000 nM): 86.5% and 103% | normalised viability (BT-549 [15]; 10000 nM): 14.1% and 20.7% | normalised viability (HCC1599 [16]; 10 nM): 108% and 96.7% | normalised viability (HCC1599 [16]; 10000 nM): 63.5% and 83.8%

C[C@@H]1CCN(C(=O)CC#N)C[C@@H]1N(C)c1ncnc2[nH]ccc12 [Tofacitinib]
drug sensitivity score (CAL-148): 0 | drug sensitivity score (MDA-MB-453): 0 | drug sensitivity score (HDQ-P1): 0 | drug sensitivity score (BT-474 [1]): 0 | drug sensitivity score (HCC1143 [2]): 0 | drug sensitivity score (MCF-10A): 0 | drug sensitivity score (HCC1937 [3]): 0 | drug sensitivity score (MFM-223 [4]): 0 | drug sensitivity score (CAL-51 [5]): 0 | drug sensitivity score (Hs578T [6]): 0 | drug sensitivity score (MDA-MB-231): 0 | drug sensitivity score (CAL-85-1): 0 | drug sensitivity score (BT-549 [7]): 0 | drug sensitivity score (DU-4475): 0 | drug sensitivity score (HCC1599 [8]): 0 | drug sensitivity score (CAL-120): 0

CCOc1cc2ncc(C#N)c(Nc3ccc(OCc4ccccn4)c(Cl)c3)c2cc1NC(=O)/C=C/CN(C)C [Neratinib]
drug sensitivity score (CAL-148): 0.237 | drug sensitivity score (MDA-MB-453): 0 | drug sensitivity score (HDQ-P1): 0 | drug sensitivity score (BT-474 [1]): 4.09 | drug sensitivity score (HCC1143 [2]): 0 | drug sensitivity score (MCF-10A): 0 | drug sensitivity score (HCC1937 [3]): 0 | drug sensitivity score (MFM-223 [4]): 0 | drug sensitivity score (CAL-51 [5]): 0 | drug sensitivity score (Hs578T [6]): 0 | drug sensitivity score (MDA-MB-231): 4.21 | drug sensitivity score (CAL-85-1): 3.47 | drug sensitivity score (BT-549 [7]): 0 | drug sensitivity score (DU-4475): 0 | drug sensitivity score (HCC1599 [8]): 0 | drug sensitivity score (CAL-120): 0 | normalised viability (BT-474 [9]; 1 nM): 105% | normalised viability (BT-474 [9]; 100 nM): 120% | normalised viability (BT-474 [9]; 1000 nM): 91.2% | normalised viability (MDA-MB-436; 1 nM): 104% | normalised viability (MDA-MB-436; 100 nM): 108% | normalised viability (MDA-MB-436; 1000 nM): 110% | normalised viability (HCC1143 [10]; 1 nM): 97.1% | normalised viability (HCC1143 [10]; 100 nM): 91.9% | normalised viability (HCC1143 [10]; 1000 nM): 84.5% | normalised viability (HCC1937 [11]; 1 nM): 80.3% | normalised viability (HCC1937 [11]; 100 nM): 99.5% | normalised viability (HCC1937 [11]; 1000 nM): 96.3% | normalised viability (MFM-223 [12]; 1 nM): 99.2% | normalised viability (MFM-223 [12]; 100 nM): 87.7% | normalised viability (MFM-223 [12]; 1000 nM): 91.6% | normalised viability (CAL-51 [13]; 0.3 nM): 92% | normalised viability (CAL-51 [13]; 3 nM): 90.5% | normalised viability (CAL-51 [13]; 10 nM): 93% | normalised viability (Hs578T [14]; 1 nM): 98.6% | normalised viability (Hs578T [14]; 100 nM): 88.5% | normalised viability (Hs578T [14]; 1000 nM): 93.9% | normalised viability (BT-549 [15]; 1 nM): 93.7% | normalised viability (BT-549 [15]; 100 nM): 82% | normalised viability (BT-549 [15]; 1000 nM): 93.8% | normalised viability (HCC1599 [16]; 1 nM): 108% | normalised viability (HCC1599 [16]; 100 nM): 106% | normalised viability (HCC1599 [16]; 1000 nM): 90.1%

COC(=O)C[C@](O)(CCCC(C)(C)O)C(=O)O[C@@H]1C(OC)=C[C@]23CCCN2CCc2cc4c(cc2[C@H]13)OCO4 [Omacetaxine]
drug sensitivity score (CAL-148): 6.49 | drug sensitivity score (MDA-MB-453): 0 | drug sensitivity score (HDQ-P1): 3.97 | drug sensitivity score (BT-474 [1]): 0.916 | drug sensitivity score (HCC1143 [2]): 0 | drug sensitivity score (MCF-10A): 13.3 | drug sensitivity score (HCC1937 [3]): 0 | drug sensitivity score (MFM-223 [4]): 18.3 | drug sensitivity score (CAL-51 [5]): 0 | drug sensitivity score (Hs578T [6]): 17.1 | drug sensitivity score (MDA-MB-231): 7.01 | drug sensitivity score (CAL-85-1): 29 | drug sensitivity score (BT-549 [7]): 4.27 | drug sensitivity score (DU-4475): 0 | drug sensitivity score (HCC1599 [8]): 0 | drug sensitivity score (CAL-120): 1.24

COC1=C2C[C@@H](C)C[C@H](OC)[C@H](O)[C@@H](C)/C=C(\C)[C@H](OC(N)=O)[C@@H](OC)/C=C\C=C(/C)C(=O)NC(=CC1=O)C2=O [Geldanamycin]
drug sensitivity score (CAL-148): 0 | drug sensitivity score (MDA-MB-453): 0 | drug sensitivity score (HDQ-P1): 0 | drug sensitivity score (BT-474 [1]): 2.54 | drug sensitivity score (HCC1143 [2]): 0 | drug sensitivity score (MCF-10A): 7.09 | drug sensitivity score (HCC1937 [3]): 6.9 | drug sensitivity score (MFM-223 [4]): 2.69 | drug sensitivity score (CAL-51 [5]): 1.35 | drug sensitivity score (Hs578T [6]): 0 | drug sensitivity score (MDA-MB-231): 4.3 | drug sensitivity score (CAL-85-1): 6.66 | drug sensitivity score (BT-549 [7]): 0 | drug sensitivity score (DU-4475): 0.88 | drug sensitivity score (HCC1599 [8]): 0 | drug sensitivity score (CAL-120): 0 | normalised viability (BT-474 [9]; 10 nM): 127% | normalised viability (BT-474 [9]; 1000 nM): 18.5% | normalised viability (BT-474 [9]; 10000 nM): 16.4% | normalised viability (MDA-MB-436; 10 nM): 107% | normalised viability (MDA-MB-436; 1000 nM): 15.7% | normalised viability (MDA-MB-436; 10000 nM): 16.9% | normalised viability (HCC1143 [10]; 10 nM): 90.2% | normalised viability (HCC1143 [10]; 1000 nM): 38.3% | normalised viability (HCC1143 [10]; 10000 nM): 24.9% | normalised viability (HCC1937 [11]; 10 nM): 115% | normalised viability (HCC1937 [11]; 1000 nM): 30.1% | normalised viability (HCC1937 [11]; 10000 nM): 21.3% | normalised viability (MFM-223 [12]; 10 nM): 103% | normalised viability (MFM-223 [12]; 1000 nM): 17.7% | normalised viability (MFM-223 [12]; 10000 nM): 8.14% | normalised viability (CAL-51 [13]; 3 nM): 109% | normalised viability (CAL-51 [13]; 30 nM): 100% | normalised viability (CAL-51 [13]; 100 nM): 95.4% | normalised viability (Hs578T [14]; 10 nM): 122% | normalised viability (Hs578T [14]; 1000 nM): 31.1% | normalised viability (Hs578T [14]; 10000 nM): 17.2% | normalised viability (BT-549 [15]; 10 nM): 89.7% | normalised viability (BT-549 [15]; 1000 nM): 18% | normalised viability (BT-549 [15]; 10000 nM): 15.9% | normalised viability (HCC1599 [16]; 10 nM): 113% | normalised viability (HCC1599 [16]; 1000 nM): 31.3% | normalised viability (HCC1599 [16]; 10000 nM): 20.1%
